{"source": "patent US20250186396A1", "about": "“COMPOSITIONS AND METHODS FOR THE TREATMENT OF GLIOBLASTOMA WITH A DUAL TARGETING ANTI-TUMOR COMPOSITION” (Northwestern University, priority 2023, published 2025)", "assay_type_in_all_cases": "in vivo, C57BL/6 mice", "key": {"[1]": {"test_system": "005 GSC tumors", "experiment": "Flow cytometry of tumor-derived immune cells, 005 GSC tumors", "method": "(§1) Mice and Intracranial Xenograft Tumor Models. Female C57BL/6 mice at 3 to 4 weeks of age were purchased from the Jackson Laboratory (#0000664). All animals were grouped by 5 mice per cage and maintained in IVC System (San Diego, CA) for a week before the experiment. All animal experiments were performed with the approval of the Institutional Animal Care and Use Committee (IACUC) at Northwestern University. The intracranial xenograft tumor models were established previously. In brief, mice were anesthetized by isoflurane through IMPAC6 Anesthesia System. Then a dental drill was used to open a small hole in the skull of mice 1.2 mm anterior and 3.0 mm lateral to the bregma. Mice were placed into the stereotactic apparatus, and 5 μL 005 GSC, CT2A, or GL261 cells in FBS-free culture medium were injected into the right caudate nucleus 3 mm below the surface of the brain using a 10 μL Hamilton syringe with an unbeveled 30-gauge needle. The incision was closed using Vetbond glue. Meloxicam (20 mg/kg, daily) was subcutaneously injected for pain relief for 3 days after surgery. Mice received the treatment with BAPN (2 g/L in drinking water) on day 4, SR9009 (100 mg/kg body weight, i.p.) daily for 10 days beginning at day 7 post-orthotopic injection, anti-PD1 (10 mg/kg body weight, i.p.) on days 11, 14, and 17 post-orthotopic injection, and/or clodronate liposomes (200 μL, once every 3 days) starting at day 4 post-orthotopic injection. Mice with neurological deficits or moribund appearance were sacrificed according to the IACUC protocol. At the end of the experiment, the brains of mice were collected, either fixed in 4% paraformaldehyde (PFA) (ThermoFisher Scientific, #J61899.AK) after transcardiac perfusion with PBS for optimal cutting temperature (OCT)-cryosectioning or processed using the percoll density gradient cell separation method to isolate tumor-derived immune cells for flow cytometry analysis.\nTumor-derived immune cells isolation. Mice with neurologic deficits or moribund appearance were sacrificed to harvest their brains. Immune cells in the brain tumors were isolated using the percoll density gradient cell separation method as previously described. In brief, after perfusion with PBS, brains were homogenized on ice with pre-cold 10 mL HBSS. Then cells were spun down at 1,500 rpm for 10 minutes at 4° C., and were resuspended in 30% Percoll (GE Healthcare, #17-0891-01). The solution was gently laid on top of the 70% Percoll and centrifuged at 1,200 g for 30 minutes at 4° C. with accelerator 7 and breaker 0. After removing myelin and debris, the interphase was collected and centrifuged at 1,500 rpm for 10 minutes at 4° C. […]\nFlow cytometry. […] Samples were read through the BD FACSymphony or BD LSRFortessa flow cytometer and analyzed in FlowJo v10.8.1."}, "[2]": {"test_system": "CT2A tumors", "experiment": "Flow cytometry of tumor-derived immune cells, CT2A tumors", "conditions": "for CD45+CD3+CD8+CD69+ activated T cells / CD45+CD3+CD8+IFN-γ+ activated T cells: CT2A tumors", "method": "as §1\nTumor-derived immune cells isolation. Mice with neurologic deficits or moribund appearance were sacrificed to harvest their brains. Immune cells in the brain tumors were isolated using the percoll density gradient cell separation method as previously described. In brief, after perfusion with PBS, brains were homogenized on ice with pre-cold 10 mL HBSS. Then cells were spun down at 1,500 rpm for 10 minutes at 4° C., and were resuspended in 30% Percoll (GE Healthcare, #17-0891-01). The solution was gently laid on top of the 70% Percoll and centrifuged at 1,200 g for 30 minutes at 4° C. with accelerator 7 and breaker 0. After removing myelin and debris, the interphase was collected and centrifuged at 1,500 rpm for 10 minutes at 4° C. The cell pellet was resuspended for further analysis.\nFlow cytometry. The single-cell suspensions were incubated with fixable viability dye (Invitrogen, #5211229035) on ice for 10 minutes. After washing with FACS buffer, cells were incubated with the TruStain FcX (anti-mouse CD16/32) Antibody (BioLegend, #103132) and True-Stain Monocyte Blocker (BioLegend, #426102) in 5% BSA for 30 minutes on ice to block Fc receptors and non-specific binding of the cyanine acceptor fluorophores. Different antibody cocktails, including Percp/Cy5.5 anti-mouse CD45 (BioLegend, […]), AF488 anti-mouse CD3 (BioLegend, #100210), BV711 anti-mouse CD8 (BioLegend, #100747), PE/Cy7 anti-mouse CD69 (BioLegend, #104512), APC/Cy7 anti-mouse IFN-γ (BioLegend, #505850), PE/Cy7 anti-mouse/human CD11b (BioLegend, #101216), PE anti-mouse CD68 (BD Bioscience, #566386), and BV421 anti-mouse CX3CR1 (BD Bioscience, #567531) were added to the samples and incubated for 30 minutes on ice. After washing with FACS buffer, cells were incubated with fixation buffer (BioLegend, #420801) overnight. Samples were read through the BD FACSymphony or BD LSRFortessa flow cytometer and analyzed in FlowJo v10.8.1."}, "[3]": {"test_system": "CT2A tumors", "experiment": "Immunofluorescence staining of CT2A tumors", "conditions": "for intratumoral CD4+ T cells / intratumoral CD8+ T cells / intratumoral activated CD8+ (CD8+CD69+) T cells: CT2A model, BAPN 2 g/L in drinking water from day 4, SR9009 100 mg/kg i.p. daily for 10 days from day 7; for CX3CR1+ microglia in tumors / F4/80+ macrophages in tumors: CT2A tumors vs control, BAPN 2 g/L drinking water or SR9009 100 mg/kg i.p. daily 10 days", "method": "as §1\nImmunofluorescence. Immunofluorescence was performed using a standard protocol that was previously established. In brief, slides from cryosections were kept at room temperature for 30 minutes and fixed in 10% PFA for 30 minutes prior to permeabilization. Then, 0.25% Triton X-100 in PBS was added for 30 minutes at room temperature to permeabilize the cell membrane. After three times PBS washing, sections were blocked by 5% goat serum for 30 minutes. Specimens were incubated with primary antibody for 1 hour at room temperature and then overnight at 4° C. Then, the unbound primary antibodies were washed out by three times PBS for 3 minutes each and corresponding secondary antibody cocktails were prepared and added to the sections for 1 hour incubation. Cell nuclear was counterstained with DAPI/anti-fade mounting medium (Vector Laboratories, #H-1200-10). Immunofluorescence images were captured using Nikon AX/AX R Confocal Microscope System with an apo 60 1.40 Oil 160/0.17 objective in the Center for Advanced Microscopy (CAM) at Northwestern University. The relative intensity of the protein signal was determined by Image J. For one slide, 3-5 fields of images were captured randomly, and the intensity of the protein signal was determined by Image J. The average quantified value of these 3-5 fields was represented as the protein signal intensity of one sample and presented as the individual point in the bar graph. Antibodies specific to CD8 (Invitrogen, #PA5-81344), CD69 (Santa Cruz Biotechnology, #sc-373799), CX3CR1 (Invitrogen, #702321), F4/80 (Cell Signaling Technology, #30325S), OLFML3 (Invitrogen, #702321), Ki67 (Cell Signaling Technology, #9129S), and CC3 (Cell Signaling Technology, #9661S) were used."}, "[4]": {"conditions": "size matched CT2A tumors, BAPN 2 g/L in drinking water"}}, "data": [{"smiles": "N#CCCN", "note": "[BAPN, β-aminopropionitrile]", "values": [{"measurement": "CD45+CD3+CD8+CD69+ activated T cells", "setting": "[1]", "result": "Increases"}, {"measurement": "CD45+CD3+CD8+IFN-γ+ activated T cells", "setting": "[1]", "result": "Increases"}, {"measurement": "CD45+CD3+CD8+CD69+ activated T cells", "setting": "[2]", "result": "Increases"}, {"measurement": "CD45+CD3+CD8+IFN-γ+ activated T cells", "setting": "[2]", "result": "Increases"}, {"measurement": "CD45highCD11b+CD68+ macrophages", "setting": "[2]; [4]", "result": "decreased"}, {"measurement": "CD45lowCD11b+CX3CR1+ microglia", "setting": "[2]; [4]", "result": "increased"}, {"measurement": "intratumoral CD4+ T cells", "setting": "[3]", "result": "increased"}, {"measurement": "intratumoral CD8+ T cells", "setting": "[3]", "result": "increased"}, {"measurement": "intratumoral activated CD8+ (CD8+CD69+) T cells", "setting": "[3]", "result": "increased"}, {"measurement": "CX3CR1+ microglia in tumors", "setting": "[3]", "result": "higher"}, {"measurement": "F4/80+ macrophages in tumors", "setting": "[3]", "result": "lower"}]}, {"smiles": "CCOC(=O)N1CCC(CN(Cc2ccc(Cl)cc2)Cc2ccc([N+](=O)[O-])s2)C1", "note": "(centres unmarked) [SR9009]", "values": [{"measurement": "CD45+CD3+CD8+CD69+ activated T cells", "setting": "[1]", "result": "Increases"}, {"measurement": "CD45+CD3+CD8+IFN-γ+ activated T cells", "setting": "[1]", "result": "Increases"}, {"measurement": "CD45+CD3+CD8+CD69+ activated T cells", "setting": "[2]", "result": "Increases"}, {"measurement": "CD45+CD3+CD8+IFN-γ+ activated T cells", "setting": "[2]", "result": "Increases"}, {"measurement": "intratumoral CD4+ T cells", "setting": "[3]", "result": "increased"}, {"measurement": "intratumoral CD8+ T cells", "setting": "[3]", "result": "increased"}, {"measurement": "intratumoral activated CD8+ (CD8+CD69+) T cells", "setting": "[3]", "result": "increased"}, {"measurement": "CX3CR1+ microglia in tumors", "setting": "[3]", "result": "reduced"}, {"measurement": "F4/80+ macrophages in tumors", "setting": "[3]", "result": "did not affect"}]}]}
